The term IC50 denotes the concentration at which inhibition is half-maximal.

SMILES strings stand for the structures. The source made the active and inactive calls. No cut-off for these calls is given here.

The values below come from ChEMBL document CHEMBL4823304, “Phytochemicals from the flowers of Prunus persica (L.) Batsch: Anti-adipogenic effect of mandelamide on 3T3-L1 preadipocytes” (Bioorg Med Chem Lett, 2021).

Data set [1] has as its system 3T3-L1. The data set is described as follows: Inhibition of preadipocyte differentiation in mouse 3T3-L1 cells assessed as lipid droplet accumulation at 100 uM incubated for 8 days by Oil Red O staining method relative to untreated control. The data set is classed as functional.
For data set [2], the system named is 3T3-L1. Briefly: Cytotoxicity against in mouse 3T3-L1 cells assessed as reduction in cell viability at 100 uM incubated for 24 hrs by MTT assay relative to control. The data set is classed as cell-based. Particulars: 3t3-l1, 24 h. For orientation: Tetrazolium dyes change colour on reduction, which living cells bring about.
Data set [3] relates to 3T3-L1. The data set is described as follows: Inhibition of preadipocyte differentiation in mouse 3T3-L1 cells assessed as lipid droplet accumulation incubated for 8 days by Oil Red O staining method relative to untreated control. The format is functional, cell-based. As to conditions: 3T3-L1, 192 h.
The subject of data set [4] is 3T3-L1. Briefly: Anti-adipogenic activity against mouse 3T3-L1 cells assessed as decrease in PPARgamma protein expression measured after 8 days by Western blotting analysis relative to control. The data set is classed as functional, cell-based. As to conditions: time 8.0 day. In general terms: Immunoblotting shows a protein as a band on a membrane.
Data set [5] deals with 3T3-L1. Briefly: Anti-adipogenic activity against mouse 3T3-L1 cells assessed as decrease in GR protein expression measured after 8 days by Western blotting analysis relative to control. The data set is classed as functional, cell-based. Particulars: time 8.0 day.
Data set [6] relates to 3T3-L1. Briefly: Anti-adipogenic activity against mouse 3T3-L1 cells assessed as decrease in C/EBPalpha protein expression measured after 8 days by Western blotting analysis relative to control. As to conditions: time 8.0 day. The format is functional, cell-based.
Data set [7] deals with 3T3-L1. Briefly: Anti-adipogenic activity against mouse 3T3-L1 cells assessed as decrease in P38 protein expression measured after 8 days by Western blotting analysis relative to control. The data set is classed as functional, cell-based. Particulars: time 8.0 day.
The test system of data set [8] is 3T3-L1. Briefly: Anti-adipogenic activity against mouse 3T3-L1 cells assessed as decrease in JNK protein expression measured after 8 days by Western blotting analysis relative to control. As to conditions: time 8.0 day. The format is functional, cell-based.
The subject of data set [9] is 3T3-L1. The data set is described as follows: Anti-adipogenic activity against mouse 3T3-L1 cells assessed as decrease in ERK protein expression measured after 8 days by Western blotting analysis relative to control. The format is functional, cell-based. Particulars: time 8.0 day.
For data set [10], the system named is 3T3-L1. Briefly: Anti-adipogenic activity against mouse 3T3-L1 cells assessed as decrease in p-JNK protein expression measured after 8 days by Western blotting analysis relative to control. The format is functional, cell-based. Particulars: time 8.0 day.
For data set [11], the system named is 3T3-L1. Briefly: Anti-adipogenic activity against mouse 3T3-L1 cells assessed as decrease in p-P38 protein expression measured after 8 days by Western blotting analysis relative to control. As to conditions: time 8.0 day. The data set is classed as functional, cell-based.
Data set [12] concerns 3T3-L1. The data set is described as follows: Anti-adipogenic activity against mouse 3T3-L1 cells assessed as decrease in p-ERK protein expression measured after 8 days by Western blotting analysis relative to control. The format is functional, cell-based. As to conditions: time 8.0 day.
Data set [13] concerns 3T3-L1. Briefly: Anti-adipogenic activity against mouse 3T3-L1 cells assessed as decrease in C/EBPbeta protein expression measured after 8 days by Western blotting analysis relative to control. The format is functional, cell-based. As to conditions: time 8.0 day.

Regarding `NC(=O)[C@H](O[C@@H]1O[C@H](CO)[C@@H](O)[C@H](O)[C@H]1O)c1ccccc1`, the result in the data set on 3T3-L1 [1] (time 8.0 day) was Active. Besides, the Activity entry in the data set on 3T3-L1 [2] is given as “Non-Toxic”.

Take `O=c1c(O[C@@H]2O[C@H](CO)[C@@H](O)[C@H](O)[C@H]2O)c(-c2ccc(O)cc2)oc2cc(O)cc(O)c12` [ASTRAGALIN]: in the data set with 3T3-L1 [1] (time 8.0 day), the outcome was Active. Moreover, the Activity result in the data set on 3T3-L1 [2] is recorded as “Non-Toxic”.

Regarding `O=C1C[C@@H](c2ccc(O)cc2)Oc2cc(O[C@@H]3O[C@H](CO)[C@@H](O)[C@H](O)[C@H]3O)cc(O)c21` [PRUNIN], the result in the data set with 3T3-L1 [1] (time 8.0 day) was Active. In the data set with 3T3-L1 [2], the Activity result is reported as “Non-Toxic”.

In the case of `COc1cc(/C=C/C(=O)O)ccc1O` [FERULATE], the Activity is listed as 58.22% in the data set on 3T3-L1 [1] (time 8 day) and “Non-Toxic” with 3T3-L1 [2].

In the case of `O=C(/C=C/c1ccc(O)c(O)c1)O[C@@H]1C[C@](O)(C(=O)O)C[C@@H](O)[C@H]1O` [CHLOROGENIC ACID], the figures for the Activity with 3T3-L1 [1] (time 8 day) and in the data set with 3T3-L1 [2] were 58.44% and “Non-Toxic”, respectively.

With `NC(=O)[C@H](O[C@@H]1O[C@H](CO[C@@H]2O[C@H](CO)[C@@H](O)[C@H](O)[C@H]2O)[C@@H](O)[C@H](O)[C@H]1O)c1ccccc1`, in the data set on 3T3-L1 [1] (time 8.0 day), the result was Active. Besides, the Activity result in the data set with 3T3-L1 [2] was “Non-Toxic”.

Regarding `NC(=O)[C@H](O)c1ccccc1`, the Activity was 12.23% in the data set on 3T3-L1 [1] (time 8 day); “Dose-Dependent Effect” in the data set with 3T3-L1 [4]; “Dose-Dependent Effect” with 3T3-L1 [5]; “Dose-Dependent Effect” in the data set on 3T3-L1 [6]; “Dose-Dependent Effect” in the data set on 3T3-L1 [7]; “Dose-Dependent Effect” in the data set with 3T3-L1 [8]. In addition, the Activity result was “Dose-Dependent Effect” with 3T3-L1 [9]; “Dose-Dependent Effect” in the data set on 3T3-L1 [10]; “Non-Toxic” in the data set on 3T3-L1 [2]; “Dose-Dependent Effect” in the data set on 3T3-L1 [11]; “Dose-Dependent Effect” with 3T3-L1 [12]; “Dose-Dependent Effect” with 3T3-L1 [13]. Besides, the IC50 with 3T3-L1 [3] came out at 36 µM.

Turning to `O=c1ccn([C@@H]2O[C@H](CO)[C@@H](O)[C@H]2O)c(=O)[nH]1` [URIDINE], the result in the data set with 3T3-L1 [1] (time 8.0 day) was Active. Further, the Activity entry in the data set on 3T3-L1 [2] was “Non-Toxic”.

On to `O=C(O)[C@H](O[C@@H]1O[C@H](CO)[C@@H](O)[C@H](O)[C@H]1O)c1ccccc1`, for which, in the data set on 3T3-L1 [1] (time 8.0 day), the outcome was Active. Moreover, the Activity result with 3T3-L1 [2] is reported as “Non-Toxic”.

As to `COC(=O)/C=C/c1ccc(O)c(O)c1` [METHYLCAFFEATE], the figures for the Activity in the data set with 3T3-L1 [1] (time 8 day) and in the data set with 3T3-L1 [2] were 34.67% and “Non-Toxic”, respectively.

For the compound `C[C@@H]1O[C@@H](Oc2c(-c3ccc(O)cc3)oc3cc(O)cc(O)c3c2=O)[C@H](O)[C@H](O)[C@H]1O` [AFZELIN], the result in the data set on 3T3-L1 [1] (time 8.0 day) was Active. In addition, the Activity result with 3T3-L1 [2] is listed as “Non-Toxic”.

As for `O[C@@H]1[C@@H](O)[C@H](OCc2ccccc2)O[C@H](CO[C@H]2OC[C@H](O)[C@@H](O)[C@@H]2O)[C@H]1O`, the result in the data set with 3T3-L1 [1] (time 8.0 day) was Active. The Activity entry in the data set on 3T3-L1 [2] is recorded as “Non-Toxic”.

Take `O=C1C[C@@H](c2ccc(O)cc2)Oc2cc(O)cc(O)c21` [NARINGENIN]: the Activity with 3T3-L1 [1] (time 8 day) is recorded as 44.21%; in the data set on 3T3-L1 [2] it was “Non-Toxic”.

As to `C[C@@H]1O[C@@H](OC[C@H]2O[C@@H](Oc3c(-c4ccc(O)cc4)oc4cc(O)cc(O)c4c3=O)[C@H](O)[C@@H](O)[C@@H]2O)[C@H](O)[C@H](O)[C@H]1O` [NICOTIFLOROSIDE], the result in the data set on 3T3-L1 [1] (time 8.0 day) was Active. Further, in the data set on 3T3-L1 [2], the Activity result is on record as “Non-Toxic”.
